This passage reports IC50 results from patent US20240182481A1 (Tango Therapeutics, Inc., priority 2021, published 2024).

SMILES strings stand for the structures.

Test [1] has as its system MDA-MB-436 (BRCA1 mutant) cell line. The experiment in a line: Viability assay in BRCA1 mutant cell line MDA-MB-436. It is filed as cell-based. The following applies: Homo sapiens, MDA-MB-436, viability, BRCA1 mutant MDA-MB-436; read-out: MDA-MB-436 rel IC50. The text has this: (§1) Table 1 also indicates IC50 values in a viability assay for a non-isogenic pair of BRCA1 mutant (column 5—MDA-MB-436) and BRCA1 WT (column 6—HCC1954) cell lines. These values indicate the effect of treatment with compound on cell survival.

Test [2] relates to HCC1954 (BRCA1 WT) cell line. The experiment in a line: Viability assay in BRCA1 WT cell line HCC1954. It is filed as cell-based. As to conditions: Homo sapiens, read-out: HCC 1954 IC50 rel IC50.
Text: as §1

The next test has as its system monoubiquitinated PCNA. In words: AlphaLISA assay measuring monoubiquitinated PCNA in MDA-MB-436. It is filed as cell-based. The following applies: Homo sapiens, read-out: Alpha LISA IC50. The text has this:
Table 1 also indicates IC50 values for exemplary compounds in an AlphaLISA assay measuring monoubiquitinated PCNA in a BRCA1 mutant cell line (MDA-MB-436; column 7).
(In general: In Alpha technology, singlet oxygen from a donor bead excites a nearby acceptor bead.)

The target in another test is USP1-UAF1 (Homo sapiens, UniProt O94782). The experiment in a line: Ubiquitin Rhodamine assay for USP1-UAF1 activity. In kind it is biochemical. The procedure:
Certain compounds of the disclosure were assessed for USP1-UAF1 activity in a Ubiquitin Rhodamine assay as described in Example 135.

USP1-UAF1, sequence (O94782 whole entry): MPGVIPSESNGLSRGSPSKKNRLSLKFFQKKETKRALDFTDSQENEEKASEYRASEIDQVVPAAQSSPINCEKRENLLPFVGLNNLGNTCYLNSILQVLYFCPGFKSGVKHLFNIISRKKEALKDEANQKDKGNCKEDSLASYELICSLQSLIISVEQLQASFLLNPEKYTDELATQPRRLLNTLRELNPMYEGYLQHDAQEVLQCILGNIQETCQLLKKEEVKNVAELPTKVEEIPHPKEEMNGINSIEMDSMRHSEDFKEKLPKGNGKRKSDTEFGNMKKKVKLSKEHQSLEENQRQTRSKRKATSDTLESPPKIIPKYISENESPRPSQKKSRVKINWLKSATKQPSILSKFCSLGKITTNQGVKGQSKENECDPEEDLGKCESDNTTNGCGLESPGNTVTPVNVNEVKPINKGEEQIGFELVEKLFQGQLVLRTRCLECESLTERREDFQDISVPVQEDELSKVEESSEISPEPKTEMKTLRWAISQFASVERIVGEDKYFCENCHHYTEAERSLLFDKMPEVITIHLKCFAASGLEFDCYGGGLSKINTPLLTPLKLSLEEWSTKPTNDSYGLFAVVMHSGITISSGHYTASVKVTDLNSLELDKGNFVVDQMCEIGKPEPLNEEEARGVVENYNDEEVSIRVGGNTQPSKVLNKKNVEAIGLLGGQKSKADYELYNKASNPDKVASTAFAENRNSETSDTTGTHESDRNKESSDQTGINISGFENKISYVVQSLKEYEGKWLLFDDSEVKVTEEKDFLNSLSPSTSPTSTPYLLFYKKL
USP1-UAF1, sequence (Q8TAF3 whole entry partner): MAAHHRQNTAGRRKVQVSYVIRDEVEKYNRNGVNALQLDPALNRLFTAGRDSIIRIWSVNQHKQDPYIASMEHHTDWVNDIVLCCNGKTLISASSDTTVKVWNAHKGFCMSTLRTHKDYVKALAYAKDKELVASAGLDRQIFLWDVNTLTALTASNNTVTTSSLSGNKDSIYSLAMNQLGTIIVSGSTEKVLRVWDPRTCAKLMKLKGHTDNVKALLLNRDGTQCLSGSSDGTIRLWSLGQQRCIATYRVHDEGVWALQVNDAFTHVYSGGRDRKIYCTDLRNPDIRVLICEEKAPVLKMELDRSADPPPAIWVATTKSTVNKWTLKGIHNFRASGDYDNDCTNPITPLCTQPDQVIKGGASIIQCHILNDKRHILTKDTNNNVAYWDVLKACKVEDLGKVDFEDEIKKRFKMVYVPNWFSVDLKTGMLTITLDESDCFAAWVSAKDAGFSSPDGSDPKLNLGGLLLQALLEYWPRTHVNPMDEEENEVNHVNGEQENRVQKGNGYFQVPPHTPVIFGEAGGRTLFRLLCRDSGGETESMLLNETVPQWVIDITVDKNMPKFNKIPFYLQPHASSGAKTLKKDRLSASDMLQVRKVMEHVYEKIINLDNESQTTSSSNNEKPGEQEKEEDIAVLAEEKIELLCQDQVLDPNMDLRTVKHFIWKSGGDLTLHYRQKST

Broadly, the IC50 is the midpoint of a concentration-inhibition curve. With `Cn1cc(C(F)(F)F)nc1-c1ccc(Cc2n[nH]c3cnc(-c4c(OC(F)F)ncnc4C4CC4)nc23)cc1` [Compound 185, 5-[4-cyclopropyl-6-(difluoromethoxy)pyrimidin-5-yl]-3-[[4-[1-methyl-4-(trifluoromethyl)imidazol-2-yl]phenyl]methyl]-1H-pyrazolo[4,3-d]pyrimidine], the IC50 is less than 0.1 µM in test [1], not below 10 µM in test [2], less than 0.1 µM in the test with monoubiquitinated PCNA and less than 0.03 µM at USP1-UAF1.

For the compound `Cn1cc(C(F)(F)F)nc1-c1ccc(Sc2c[nH]c3cnc(-c4ccccc4C(F)(F)F)nc23)cc1` [Compound 84, 7-[4-[1-methyl-4-(trifluoromethyl)imidazol-2-yl]phenyl]sulfanyl-2-[2-(trifluoromethyl)phenyl]-5H-pyrrolo[3,2-d]pyrimidine], the IC50 is 0.25 to 10 µM in test [1], not below 10 µM in test [2], 0.25 to 10 µM in the test on monoubiquitinated PCNA and 0.1 to 10 µM against USP1-UAF1.

As to `COc1ncnc(C2CC2)c1-c1ncc2[nH]nc(Cc3cc(F)c(-n4nc(C(F)(F)F)cc4C)c(F)c3)c2n1` [Compound 129], the IC50 in test [1] was 0.1 to 0.25 µM; in test [2] it was 0.25 to 10 µM; in the test with monoubiquitinated PCNA it was 0.1 to 0.25 µM; at USP1-UAF1, less than 0.03 µM.

`CCn1cc(C(F)(F)F)nc1-c1ccc(Cc2nn(C)c3cnc(-c4c(OC)ncnc4C4CC4)nc23)cc1` [Compound 106, 5-(4-cyclopropyl-6-methoxypyrimidin-5-yl)-3-(4-(1-ethyl-4-(trifluoromethyl)-1H-imidazol-2-yl)benzyl)-1-methyl-1H-pyrazolo[4,3-d]pyrimidine]: the IC50 in test [1] was less than 0.1 µM; in test [2], not below 10 µM; in the test on monoubiquitinated PCNA it was less than 0.1 µM; against USP1-UAF1, less than 0.03 µM.

For the compound `CNCc1[nH]c2cnc(-c3c(OC)ncnc3C3CC3)nc2c1Cc1ccc(-c2nc(C(F)(F)F)cn2C)cc1` [Compound 159, 1-[2-(4-cyclopropyl-6-methoxy-pyrimidin-5-yl)-7-[[4-[1-methyl-4-(trifluoromethyl)imidazol-2-yl]phenyl]methyl]-5H-pyrrolo[3,2-d]pyrimidin-6-yl]-N-methyl-methanamine], the IC50 in test [1] lay within 0.1 to 0.25 µM; in test [2], 0.25 to 10 µM; in the test on monoubiquitinated PCNA it was 0.1 to 0.25 µM; against USP1-UAF1, 0.1 to 10 µM.

`COc1ncnc(C2CC2)c1-c1ncc2nn(C(C)C)c(Cc3ccc(-c4nc(C(F)(F)F)cn4C)cc3)c2n1` (single isomer, unassigned) [Compound 104, 5-(4-cyclopropyl-6-methoxy-pyrimidin-5-yl)-2-isopropyl-3-[[4-[1-methyl-4-(trifluoromethyl)imidazol-2-yl]phenyl]methyl]pyrazolo[4,3-d]pyrimidine]: the IC50 in test [1] was 0.1 to 0.25 µM; in test [2], not below 10 µM; in the test with monoubiquitinated PCNA it was 0.1 to 0.25 µM; against USP1-UAF1, 0.1 to 10 µM.

For `COc1ncnc(C2CC2)c1-c1ncc2[nH]cc(Cc3cc(F)c(-n4nc(C(F)(F)F)cc4C)c(F)c3)c2n1` [Compound 162, 2-(4-cyclopropyl-6-methoxy-pyrimidin-5-yl)-7-[[3,5-difluoro-4-[5-methyl-3-(trifluoromethyl)pyrazol-1-yl]phenyl]methyl]-5H-pyrrolo[3,2-d]pyrimidine], the IC50 in test [1] was less than 0.1 µM; in test [2], not below 10 µM; in the test with monoubiquitinated PCNA it was less than 0.1 µM; on USP1-UAF1, less than 0.03 µM.

Take `COc1ncnc(C2CC2)c1-c1ncc2nn(CC(F)(F)F)c(Cc3ccc(-c4nc(C(F)(F)F)cn4C)cc3)c2n1` [Compound 131, 5-(4-cyclopropyl-6-methoxy-pyrimidin-5-yl)-3-[[4-[1-methyl-4-(trifluoromethyl)imidazol-2-yl]phenyl]methyl]-2-(2,2,2-trifluoroethyl)pyrazolo[4,3-d]pyrimidine]: the IC50 in test [1] is less than 0.1 µM; in test [2], not below 10 µM; in the test with monoubiquitinated PCNA it was less than 0.1 µM; on USP1-UAF1, 0.1 to 10 µM.

Regarding `COc1ncnc(C2CC2)c1-c1nc(C(F)(F)F)c2[nH]cc(Cc3ccc(-c4nc(C(F)(F)F)cn4C)cc3)c2n1` [Compound 121, 2-(4-cyclopropyl-6-methoxy-pyrimidin-5-yl)-7-[[4-[1-methyl-4-(trifluoromethyl)imidazol-2-yl]phenyl]methyl]-4-(trifluoromethyl)-5H-pyrrolo[3,2-d]pyrimidine], the IC50 in test [1] is less than 0.1 µM; in test [2], not below 10 µM; with monoubiquitinated PCNA, less than 0.1 µM; at USP1-UAF1 it was less than 0.03 µM.

Regarding `COc1ncnc(C2CC2)c1-c1ncc2c(n1)c(Cc1ccc(-c3nc(C(F)(F)F)cn3C)cc1)nn2C(C)C` (single isomer, unassigned) [Compound 98, 5-(4-cyclopropyl-6-methoxy-pyrimidin-5-yl)-1-isopropyl-3-[[4-[1-methyl-4-(trifluoromethyl)imidazol-2-yl]phenyl]methyl]pyrazolo[4,3-d]pyrimidine], the IC50 is less than 0.1 µM in test [1], not below 10 µM in test [2], less than 0.1 µM in the test with monoubiquitinated PCNA and 0.03 to 0.1 µM against USP1-UAF1.

For the compound `COc1ncnc(C2CC2)c1-c1ncc2[nH]cc(Cc3ccc(-c4nc(C(F)(F)F)cn4C)cc3C)c2n1` [Compound 203, 2-(4-cyclopropyl-6-methoxy-pyrimidin-5-yl)-7-[[2-methyl-4-[1-methyl-4-(trifluoromethyl)imidazol-2-yl]phenyl]methyl]-5H-pyrrolo[3,2-d]pyrimidine], the IC50 in test [1] is less than 0.1 µM; in test [2], not below 10 µM; with monoubiquitinated PCNA, less than 0.1 µM; at USP1-UAF1, less than 0.03 µM.

For `COc1nc(C)nc(C2CC2)c1-c1ncc2[nH]nc(Cc3ccc(-c4nc(C(F)(F)F)cn4C)cc3)c2n1` [Compound 184, 5-(4-cyclopropyl-6-methoxy-2-methylpyrimidin-5-yl)-3-(4-(1-methyl-4-(trifluoromethyl)-1H-imidazol-2-yl)benzyl)-1H-pyrazolo[4,3-d]pyrimidine], the IC50 in test [1] is less than 0.1 µM; in test [2] it was 0.25 to 10 µM; with monoubiquitinated PCNA it was less than 0.1 µM; at USP1-UAF1, 0.03 to 0.1 µM.

For the compound `C[C@H](Oc1ncccc1-c1ncc2[nH]cc(Cc3ccc(-c4nc(C(F)(F)F)cn4C)cc3)c2n1)C(F)(F)F` (single isomer, unassigned) [Compound 51], the IC50 was less than 0.1 µM in test [1], 0.25 to 10 µM in test [2], less than 0.1 µM with monoubiquitinated PCNA and less than 0.03 µM against USP1-UAF1.

Regarding `Cn1cc(C(F)(F)F)nc1-c1ccc(Cc2c[nH]c3cnc(-c4c(C5CC5)ccnc4C4CC4)nc23)cc1` [Compound 122], the concentration for half-maximal inhibition (IC50) in test [1] is 0.1 to 0.25 µM; in test [2] it was not below 10 µM; in the test with monoubiquitinated PCNA, 0.25 to 10 µM; at USP1-UAF1, less than 0.03 µM.

In the case of `[2H]C([2H])([2H])Oc1ncnc(C2CC2)c1-c1ncc2[nH]nc(Cc3ccc(-c4nc(C(F)(F)F)cn4C)cc3)c2n1` [Compound 163, 5-[4-cyclopropyl-6-(trideuteriomethoxy)pyrimidin-5-yl]-3-[[4-[1-methyl-4-(trifluoromethyl)imidazol-2-yl]phenyl]methyl]-1H-pyrazolo[4,3-d]pyrimidine], the IC50 in test [1] is less than 0.1 µM; in test [2], not below 10 µM; in the test on monoubiquitinated PCNA it was less than 0.1 µM; against USP1-UAF1, less than 0.03 µM.
